Experimental data reported in patent publication US20060084704A1, “Methods and compositions for enhancing degradation of nuclear receptor transcription factors and uses thereof” (priority 2004, published 2006).

Target: T1, androgen receptor (AR) (Homo sapiens, UniProt P10275)
T1 construct: endogenous in cells; host or cells: T47D
T1 sequence (P10275 1-920): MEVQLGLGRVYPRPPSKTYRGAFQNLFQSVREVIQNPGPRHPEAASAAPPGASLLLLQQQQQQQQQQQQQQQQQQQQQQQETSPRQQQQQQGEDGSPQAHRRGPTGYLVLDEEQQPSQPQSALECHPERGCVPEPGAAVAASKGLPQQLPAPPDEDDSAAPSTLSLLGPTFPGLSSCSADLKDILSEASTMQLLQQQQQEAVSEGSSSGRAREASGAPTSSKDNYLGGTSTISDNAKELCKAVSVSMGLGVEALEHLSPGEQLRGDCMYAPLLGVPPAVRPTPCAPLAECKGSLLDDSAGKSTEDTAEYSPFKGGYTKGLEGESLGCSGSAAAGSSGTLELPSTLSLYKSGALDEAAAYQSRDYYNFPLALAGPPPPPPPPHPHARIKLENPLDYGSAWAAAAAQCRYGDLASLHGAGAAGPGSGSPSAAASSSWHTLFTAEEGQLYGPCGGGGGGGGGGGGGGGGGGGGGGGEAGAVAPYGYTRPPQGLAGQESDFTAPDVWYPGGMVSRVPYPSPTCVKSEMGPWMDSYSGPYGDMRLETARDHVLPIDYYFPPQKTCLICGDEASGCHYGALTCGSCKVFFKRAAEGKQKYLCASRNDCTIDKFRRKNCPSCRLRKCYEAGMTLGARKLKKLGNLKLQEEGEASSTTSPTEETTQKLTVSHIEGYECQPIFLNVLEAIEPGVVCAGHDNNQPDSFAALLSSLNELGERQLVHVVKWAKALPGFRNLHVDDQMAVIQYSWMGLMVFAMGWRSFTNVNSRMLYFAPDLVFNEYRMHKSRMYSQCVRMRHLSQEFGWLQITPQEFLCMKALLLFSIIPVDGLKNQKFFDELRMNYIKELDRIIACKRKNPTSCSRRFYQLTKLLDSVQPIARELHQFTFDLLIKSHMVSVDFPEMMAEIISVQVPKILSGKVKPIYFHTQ
Experiment: Western blot of T47D cell lysates, AR
Type: cell-based
Conditions: 5 or 10 micromolar, presence or absence of estradiol (E2)
Protocol: Human prostate cancer LNCaP cells and T47D cells were plated at a density of 7×10^5 cells per 60 millimeter tissue culture dish in […] (RPMI) medium containing 10% FBS. The medium was changed to RPMI or DME medium containing 10% charcoal-stripped serum 24 hours later to deplete cellular androgens or estrogens. After another 24 hours, treatment with the test compounds began. The test dose of JC15 was 1 or 2 micromolar and the test does of JC9 was 1, 5 and 10 micromolar. LNCap cells also received dihydrotestosterone (DHT) (3 nanomolar). Control cells received a corresponding amount of the vehicle, dimethylsulfoxide (DMSO) (<0.04%) for an equivalent exposure time. Cells were incubated with JC15 for 24 or 48 hours, and were lysed in 250 microliters of 1×SDS/PAGE loading buffer. Approximately 40 micrograms of total cellular protein was loaded in each lane of a pre-cast gel (NuPAGE, Invitrogen). Protein separation and transfer were performed following the manufacturer's instructions.

For `COc1ccc(C=CC(=O)C=C(O)C=Cc2ccc(OC)c(OC)c2)cc1OC` [JC9, 5-hydroxy-1,7-bis(3,4-dimethoxyphenyl)-1,4,6-heptatrien-3-one], the “cellular concentration of AR” value was “decreased”.
